Assay results from PMC9186412, “Rational Framework for the Design of Trp- and Arg-Rich Peptide Antibiotics Against Multidrug-Resistant Bacteria” (Frontiers in Microbiology, 2022).
In brackets after ≈: the same amount, converted by molar mass. Like-named read-outs stand apart in the source and are kept apart here. Where a SMILES comes first, the peptide text is derived from it. Bridges are numbered along the chain shown (N, C = ends). [ ]: non-standard residue; d: D form. The star is where a group is joined. X1 = CC[C@H](C)CCCCC(=O)*; Dab = NCC[C@H](N)C(=O)O

Key:
E. coli = assay: microbe, parasite or virus in culture; format: cell-based, Escherichia coli
Experimental: (§1) Bacterial clinical isolates, used for initial screening and in previous studies ([Deslouches et al., 2013]; [Lin et al., 2018]), were anonymously provided by the clinical microbiology laboratory of the University of Pittsburgh medical Center. The panel used for secondary screening was from [CDC (2013)] (Supplementary Table 3), with resistance profiles data. Bacteria are stored in lock-secured –80°C freezer and typically retrieved by obtaining single colonies on agar plates prior for subsequent liquid broth cultures. Suspensions of test bacteria were prepared from log phase of growth by diluting overnight cultures at 1:100 with fresh cation-adjusted MHB (MHB2, Millipore Sigma, United States) and incubating for additional 3–4 h. Bacteria were spun at 3,000 × g for 10 min and the pellet resuspended in test condition media (Millipore Sigma, United States) to determine bacterial turbidity using a Den-1B densitometer (Grant Instruments, United States) at 0.5 McFarland (unit of bacterial density) corresponding to […].
(§2) To examine antibacterial activity, we used minor modifications of a standard growth inhibition assay endorsed by the Clinical and Laboratory Standards Institute (CLSI), as previously described ([Deslouches et al., 2013]). Bacteria were incubated with each of the indicated peptides in MHB2. The bacterial cells were kept in an incubator for 18 h at 37°C, which is linked to a robotic system that feeds a plate reader every hour with one of 8 × 96-well plates. This set-up allows the collection of growth kinetic data at A 570 (absorbance at 570 nm) to examine growth inhibition in real time (BioTek Instruments, United States). […] The assays are typically repeated a second time. If the MIC is different, a third experimental trial is performed to confirm the MIC. To assess bactericidal properties of the peptide, the assay was modified by using 15% fetal bovine serum (FBS, for a more physiologically relevant test condition) mixed with 25% MHB2 and 60% PBS. Bacterial cells (colony forming unit/mL or CFU/mL) were enumerated after incubating treated bacteria for 3 h and plating serially diluted samples on broth agar medium at 37°C overnight. Minimum bactericidal concentration (MBC) was determined as the peptide concentration at which complete bacterial killing was observed. […] Data were analyzed using GraphPad Prism software.

K. pneumoniae = assay: microbe, parasite or virus in culture; format: cell-based, Klebsiella pneumoniae
Experimental: as §1, §2

CDC AR isolates = tested on: CDC AR isolates; parameters: key: S (green), susceptible; I (blue), intermediate; R (red), resistant; conditions: data provided by the CDC, ref CDC, cited from earlier work
From the text: Supplement Table_3.XLSX, sheet "CDC AR isolates profiles" | column: G(-) strains

S. aureus = assay: microbe, parasite or virus in culture; format: cell-based
Experimental: as §1, §2

Enterobacter spp = assay: microbe, parasite or virus in culture; format: cell-based, Enterobacter spp (aerogenes, cloacae)
Experimental: as §1, §2

P. aeruginosa = assay: microbe, parasite or virus in culture; format: cell-based, Pseudomonas aeruginosa
Experimental: as §1, §2

A. baumannii = assay: microbe, parasite or virus in culture; format: cell-based, Acinetobacter baumannii
Experimental: as §1, §2

For CC[C@H](C)CCCCC(=O)N[C@@H](CCN)C(=O)N[C@H](C(=O)N[C@@H](CCN)C(=O)N[C@H]1CCNC(=O)[C@H]([C@@H](C)O)NC(=O)[C@H](CCN)NC(=O)[C@H](CCN)NC(=O)[C@H](CC(C)C)NC(=O)[C@@H](CC(C)C)NC(=O)[C@H](CCN)NC1=O)[C@@H](C)O [Colistin, reference compound] (X1-[Dab]T[Dab][Dab][Dab][dL]L[Dab][Dab]T; lactam 4-C (inferred); N-terminus assumed), the MIC (E. coli; strain Eco541, CDC clinical strain, confirmed by a second or third experimental trial) was 1 µM (≈ 1.17 µg/mL), the MIC (E. coli; strain Eco543, CDC clinical strain, confirmed by a second or third experimental trial) was 8 µM (≈ 9.36 µg/mL) and the MIC (E. coli; strain Eco546, CDC clinical strain, confirmed by a second or third experimental trial) was 0.25 µM (≈ 0.292 µg/mL). For the same compound, the MIC (E. coli; strain Eco549, CDC clinical strain, confirmed by a second or third experimental trial) was 1 µM (≈ 1.17 µg/mL), the MIC (E. coli; strain Eco25922, MHB2, 18 h, 37°C) was 0.5 µM (≈ 0.585 µg/mL) and the MIC (E. coli; strain YDC107, UPMC, MHB2, 18 h, 37°C) was 0.5 µM (≈ 0.585 µg/mL). It also gave an MIC (E. coli; strain YDC337, UPMC, MHB2, 18 h, 37°C) of 0.25 µM (≈ 0.292 µg/mL), an MIC (E. coli; strain YDC748, UPMC, MHB2, 18 h, 37°C) of 0.25 µM (≈ 0.292 µg/mL) and an MIC (K. pneumoniae; colistin-resistant CDC isolate KP46, MHB2) of 4 µM (≈ 4.68 µg/mL). The MIC (K. pneumoniae; colistin-resistant CDC isolate KP87, MHB2) was >16 µM, the MIC (K. pneumoniae; colistin-resistant CDC isolate KP125, MHB2) was 8 µM (≈ 9.36 µg/mL) and the MIC (K. pneumoniae; colistin-resistant CDC isolate KP507, MHB2) was 16 µM (≈ 18.7 µg/mL). For the same compound, the MIC (K. pneumoniae; colistin-resistant CDC isolate KP1010, MHB2) was 16 µM (≈ 18.7 µg/mL), the MIC (K. pneumoniae; colistin-resistant CDC isolate KP1041, MHB2) was >16 µM and the MIC (K. pneumoniae; colistin-resistant CDC isolate KP1045, MHB2) was >16 µM. The MIC (K. pneumoniae; strain KP542, CDC clinical strain, confirmed by a second or third experimental trial) was >16 µM, the MIC (K. pneumoniae; strain KP548, CDC clinical strain, confirmed by a second or third experimental trial) was 0.25 µM (≈ 0.292 µg/mL) and the MIC (K. pneumoniae; strain KP550, CDC clinical strain, confirmed by a second or third experimental trial) was 0.25 µM (≈ 0.292 µg/mL). For the same compound, the MIC (K. pneumoniae; strain KP552, CDC clinical strain, confirmed by a second or third experimental trial) was 0.25 µM (≈ 0.292 µg/mL), the MIC (K. pneumoniae; strain KPA5 (colistin-resistant), UPMC, MHB2, 18 h, 37°C) was >16 µM and the MIC (K. pneumoniae; strain KPB3, UPMC, MHB2, 18 h, 37°C) was 0.25 µM (≈ 0.292 µg/mL). The MIC (K. pneumoniae; strain KPC3, UPMC, MHB2, 18 h, 37°C) was 0.25 µM (≈ 0.292 µg/mL), the Antibiotic susceptibility profile (CDC AR isolates; Acinetobacter baumannii AB273, CDC AR isolate) was “S” and the Antibiotic susceptibility profile (CDC AR isolates; Acinetobacter baumannii AB274, CDC AR isolate) was “S”. For the same compound, the Antibiotic susceptibility profile (CDC AR isolates; Acinetobacter baumannii AB275, CDC AR isolate) was “S”, the Antibiotic susceptibility profile (CDC AR isolates; Acinetobacter baumannii AB276, CDC AR isolate) was “S” and the Antibiotic susceptibility profile (CDC AR isolates; Enterobacter cloacae E62, CDC AR isolate) was “S”. For the same compound, the Antibiotic susceptibility profile (CDC AR isolates; Enterobacter cloacae E546, CDC AR isolate) was “R”, the Antibiotic susceptibility profile (CDC AR isolates; Klebsiella pneumoniae KP542, CDC AR isolate) was “I” and the Antibiotic susceptibility profile (CDC AR isolates; Klebsiella pneumoniae KP548, CDC AR isolate) was “R”. For the same compound, the Antibiotic susceptibility profile (CDC AR isolates; Klebsiella pneumoniae KP550, CDC AR isolate) was “R”, the Antibiotic susceptibility profile (CDC AR isolates; Klebsiella pneumoniae KP552, CDC AR isolate) was “R” and the Antibiotic susceptibility profile (CDC AR isolates; Pseudomonas aeruginosa PA229, CDC AR isolate) was “S”. For the same compound, the Antibiotic susceptibility profile (CDC AR isolates; Pseudomonas aeruginosa PA230, CDC AR isolate) was “S”, the Antibiotic susceptibility profile (CDC AR isolates; Pseudomonas aeruginosa PA231, CDC AR isolate) was “S” and the Antibiotic susceptibility profile (CDC AR isolates; Pseudomonas aeruginosa PA232, CDC AR isolate) was “S”. For the same compound, the Antibiotic susceptibility profile (CDC AR isolates; Pseudomonas aeruginosa PA239, CDC AR isolate) was “R”, the MIC (S. aureus; strain SA461, CDC clinical strain, confirmed by a second or third experimental trial) was >16 µM and the MIC (S. aureus; strain SA462, CDC clinical strain, confirmed by a second or third experimental trial) was >16 µM. For the same compound, the MIC (S. aureus; strain SA463, CDC clinical strain, confirmed by a second or third experimental trial) was >16 µM, the MIC (S. aureus; strain SA561, CDC clinical strain, confirmed by a second or third experimental trial) was >16 µM and the MIC (S. aureus; strain SA12212, UPMC, MHB2, 18 h, 37°C) was >16 µM. For the same compound, the MIC (S. aureus; strain SA18710, UPMC, MHB2, 18 h, 37°C) was >16 µM, the MIC (S. aureus; strain SA49775, MHB2, 18 h, 37°C) was >16 µM and the MIC (S. aureus; strain SA-US300, MHB2, 18 h, 37°C) was >16 µM. For the same compound, the MIC (Enterobacter spp; strain EA62 (aerogenes), CDC clinical strain, confirmed by a second or third experimental trial) was 2 µM (≈ 2.34 µg/mL), the MIC (Enterobacter spp; strain EA518 (aerogenes), UPMC, MHB2, 18 h, 37°C) was 0.25 µM (≈ 0.292 µg/mL) and the MIC (Enterobacter spp; strain EA547 (aerogenes), CDC clinical strain, confirmed by a second or third experimental trial) was 0.25 µM (≈ 0.292 µg/mL). For the same compound, the MIC (Enterobacter spp; strain EA596 (aerogenes), UPMC, MHB2, 18 h, 37°C) was 0.25 µM (≈ 0.292 µg/mL), the MIC (Enterobacter spp; strain EC470 (cloacae), UPMC, MHB2, 18 h, 37°C) was 0.25 µM (≈ 0.292 µg/mL) and the MIC (Enterobacter spp; strain EC544 (cloacae), CDC clinical strain, confirmed by a second or third experimental trial) was 4 µM (≈ 4.68 µg/mL). It also gave an MIC (Enterobacter spp; strain EC545 (cloacae), CDC clinical strain, confirmed by a second or third experimental trial) of 2 µM (≈ 2.34 µg/mL), an MIC (Enterobacter spp; strain EC560 (cloacae), UPMC, MHB2, 18 h, 37°C) of 0.25 µM (≈ 0.292 µg/mL) and an MIC (P. aeruginosa; strain PA01, MHB2, 18 h, 37°C) of 0.5 µM (≈ 0.585 µg/mL). For the same compound, the MIC (P. aeruginosa; strain PA14, MHB2, 18 h, 37°C) was 0.25 µM (≈ 0.292 µg/mL), the MIC (P. aeruginosa; strain PA97-5, UPMC, MHB2, 18 h, 37°C) was 0.25 µM (≈ 0.292 µg/mL) and the MIC (P. aeruginosa; strain PA129-5, UPMC, MHB2, 18 h, 37°C) was 0.5 µM (≈ 0.585 µg/mL). For the same compound, the MIC (P. aeruginosa; strain PA216, CDC clinical strain, confirmed by a second or third experimental trial) was 0.5 µM (≈ 0.585 µg/mL), the MIC (P. aeruginosa; strain PA229, CDC clinical strain, confirmed by a second or third experimental trial) was >16 µM and the MIC (P. aeruginosa; strain PA230, CDC clinical strain, confirmed by a second or third experimental trial) was 0.5 µM (≈ 0.585 µg/mL). It also gave an MIC (P. aeruginosa; strain PA231, CDC clinical strain, confirmed by a second or third experimental trial) of 1 µM (≈ 1.17 µg/mL), an MIC (A. baumannii; strain AB273, CDC clinical strain, confirmed by a second or third experimental trial) of 0.5 µM (≈ 0.585 µg/mL) and an MIC (A. baumannii; strain AB274, CDC clinical strain, confirmed by a second or third experimental trial) of 0.25 µM (≈ 0.292 µg/mL). For the same compound, the MIC (A. baumannii; strain AB275 (first line, r8), CDC clinical strain, confirmed by a second or third experimental trial) was 0.25 µM (≈ 0.292 µg/mL), the MIC (A. baumannii; strain AB275 (second line, r9), CDC clinical strain, confirmed by a second or third experimental trial) was 0.5 µM (≈ 0.585 µg/mL) and the MIC (A. baumannii; strain AB-A2, UPMC clinical strain, MHB2, 18 h, 37°C, A570, confirmed by 2nd or 3rd trial) was 0.5 µM (≈ 0.585 µg/mL). For the same compound, the MIC (A. baumannii; strain AB-A3, UPMC, MHB2, 18 h, 37°C) was 0.25 µM (≈ 0.292 µg/mL), the MIC (A. baumannii; strain AB-F8, UPMC, MHB2, 18 h, 37°C) was 0.5 µM (≈ 0.585 µg/mL) and the MIC (A. baumannii; strain AB-F9, UPMC, MHB2, 18 h, 37°C) was 0.25 µM (≈ 0.292 µg/mL).
